Legend:
[1] = molecular target: T1, Phosphodiesterase II (PDE2) (Homo sapiens, UniProt O00408); assay: PDE2 enzyme inhibitory activity, AlphaScreen cAMP kit method; format: biochemical; details: in vitro, enzyme level, seven concentrations, mean of at least three experiments
T1 construct: the recombinant plasmid pET15b-PDE2A (580–941) was donated; made in house; host or cells: E. coli BL21-Codon Plus (DE3)
T1 sequence (O00408 580-941): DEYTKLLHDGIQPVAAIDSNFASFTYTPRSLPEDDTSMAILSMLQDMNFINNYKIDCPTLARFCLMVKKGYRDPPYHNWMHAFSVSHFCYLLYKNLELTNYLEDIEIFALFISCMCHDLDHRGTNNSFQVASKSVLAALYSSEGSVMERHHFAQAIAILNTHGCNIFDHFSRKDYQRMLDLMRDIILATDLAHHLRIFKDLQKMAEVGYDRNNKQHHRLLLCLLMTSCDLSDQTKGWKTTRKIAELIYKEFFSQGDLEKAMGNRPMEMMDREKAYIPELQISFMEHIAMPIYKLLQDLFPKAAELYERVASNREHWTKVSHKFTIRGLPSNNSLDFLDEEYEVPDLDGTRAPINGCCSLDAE
Excerpt: The AlphaScreen kit method was used to detect PDE2 inhibitory activity of the 27 synthesized compounds (2a–n and 4a–m) in vitro, each diluted at seven concentrations, and each carried out with three sets of parallel experiments. The IC50 values were obtained by fitting calculations using software Graphpad Prism 7.

## Cc1ccc2c(c1)c(=O)oc1cc(O)ccc12 [Compound 1, 3-hydroxy-8-methyl-6H-benzo [C]chromen-6-one]
[1]
  IC50: > 100 µM

## CCOc1ccc2c(c1)oc(=O)c1cc(C)ccc12 [Compound 2a, 3-ethoxy-8-methyl-6H-benzo[c]chromen-6-one]
[1]
  IC50: > 100 µM

## CCCOc1ccc2c(c1)oc(=O)c1cc(C)ccc12 [Compound 2b, 8-methyl-3-propoxy-6H-benzo[c]chromen-6-one]
other
  melting point: 112.3 to 112.6 °C
[1]
  IC50: > 100 µM

## Cc1ccc2c(c1)c(=O)oc1cc(OC(C)C)ccc12 [Compound 2c, 3-isopropoxy-8-methyl-6H-benzo[c]chromen-6-one]
other
  melting point: 102.3 to 103 °C
[1]
  IC50: > 100 µM

## CCC(C)Oc1ccc2c(c1)oc(=O)c1cc(C)ccc12 (centres unmarked) [Compound 2d, 3-(sec-butoxy)-8-methyl-6H-benzo[c]chromen-6-one]
other
  melting point: 62.6 to 63.4 °C
[1]
  IC50: > 100 µM

## CCCCCOc1ccc2c(c1)oc(=O)c1cc(C)ccc12 [Compound 2e, 8-methyl-3-(pentyloxy)-6H-benzo[c]chromen-6-one]
[1]
  IC50: 34 µM

## Cc1ccc2c(c1)c(=O)oc1cc(OCC3CCCC3)ccc12 [Compound 2f, 3-(cyclopentylmethoxy)-8-methyl-6H-benzo[c]chromen-6-one]
other
  melting point: 122.8 to 123.6 °C
[1]
  IC50: > 100 µM

## Cc1ccc2c(c1)c(=O)oc1cc(OCC3CCCO3)ccc12 (centres unmarked) [Compound 2g, 8-methyl-3-((tetrahydrofuran-2-yl)methoxy)-6H-benzo[c]chromen-6-one]
other
  melting point: 122.8 to 123.6 °C
[1]
  IC50: > 100 µM

## Cc1ccc2c(c1)c(=O)oc1cc(OCC3OCCO3)ccc12 [Compound 2h, 3-((1,3-dioxolan-2-yl)methoxy)-8-methyl-6H-benzo[c]chromen-6-one]
other
  melting point: 148.2 to 148.8 °C
[1]
  IC50: > 100 µM

## Cc1ccc2c(c1)c(=O)oc1cc(OCCC3OCCO3)ccc12 [Compound 2i, 3-(2-(1,3-dioxolan-2-yl)ethoxy)-8-methyl-6H-benzo[c]chromen-6-one]
[1]
  IC50: > 100 µM

## Cc1ccc2c(c1)c(=O)oc1cc(OCC3CCCCC3)ccc12 [Compound 2j, 3-(cyclohexylmethoxy)-8-methyl-6H-benzo[c]chromen-6-one]
other
  melting point: 113.3 to 115.1 °C
[1]
  IC50: 65.7 µM

## Cc1ccc2c(c1)c(=O)oc1cc(OCC3CCOCC3)ccc12 [Compound 2k, 8-methyl-3-((tetrahydro-2H-pyran-4-yl)methoxy)-6H-benzo[c]chromen-6-one]
other
  melting point: 148 to 148.6 °C
[1]
  IC50: > 100 µM

## Cc1ccc2c(c1)c(=O)oc1cc(OCc3ccccc3F)ccc12 [Compound 2l, 3-((2-fluorobenzyl)oxy)-8-methyl-6H-benzo[c]chromen-6-one]
other
  melting point: 154.9 to 155.5 °C
[1]
  IC50: > 100 µM

## Cc1ccc2c(c1)c(=O)oc1cc(OCCC3OCCCO3)ccc12 [Compound 2m, 3-(2-(1,3-dioxan-2-yl)ethoxy)-8-methyl-6H-benzo[c]chromen-6-one]
other
  melting point: 170.1 to 172 °C
[1]
  IC50: > 100 µM

## COc1cc(COc2ccc3c(c2)oc(=O)c2cc(C)ccc23)cc(OC)c1 [Compound 2n, 3-((3,5-dimethoxybenzyl)oxy)-8-methyl-6H-benzo[c]chromen-6-one]
other
  melting point: 158.7 to 160.2 °C
[1]
  IC50: > 100 µM

## O=c1oc2cc(O)ccc2c2c1CCCC2 [Compound 3, 3-Hydroxy-7,8,9,10-tetrahydro-6H-benzo[c]chromen-6-one]
[1]
  IC50: 93.2 µM

## CCOc1ccc2c3c(c(=O)oc2c1)CCCC3 [Compound 4a, 3-ethoxy-7,8,9,10-tetrahydro-6H-benzo[c]chromen-6-one]
other
  melting point: 104.2 to 105.6 °C
[1]
  IC50: > 100 µM

## CCCOc1ccc2c3c(c(=O)oc2c1)CCCC3 [Compound 4b, 3-propoxy-7,8,9,10-tetrahydro-6H-benzo[c]chromen-6-one]
other
  melting point: 107.1 to 108.3 °C
[1]
  IC50: > 100 µM

## CC(C)Oc1ccc2c3c(c(=O)oc2c1)CCCC3 [Compound 4c, 3-isopropoxy-7,8,9,10-tetrahydro-6H-benzo[c]chromen-6-one]
other
  melting point: 85.4 to 87.5 °C
[1]
  IC50: 34.3 µM

## CCC(C)Oc1ccc2c3c(c(=O)oc2c1)CCCC3 (centres unmarked) [Compound 4d, 3-(sec-butoxy)-7,8,9,10-tetrahydro-6H-benzo[c]chromen-6-one]
other
  melting point: 74 to 74.2 °C
[1]
  IC50: > 100 µM

## CCCCCOc1ccc2c3c(c(=O)oc2c1)CCCC3 [Compound 4e, 3-(pentyloxy)-7,8,9,10-tetrahydro-6H-benzo[c]chromen-6-one]
other
  melting point: 110.6 to 112.4 °C
[1]
  IC50: > 100 µM

## O=c1oc2cc(OCC3CCCO3)ccc2c2c1CCCC2 (centres unmarked) [Compound 4f, 3-((tetrahydrofuran-2-yl)methoxy)-7,8,9,10-tetrahydro-6H-benzo[c]chromen-6-one]
other
  melting point: 112.2 to 114 °C
[1]
  IC50: > 100 µM

## O=c1oc2cc(OCC3OCCO3)ccc2c2c1CCCC2 [Compound 4g, 3-((1,3-dioxolan-2-yl)methoxy)-7,8,9,10-tetrahydro-6H-benzo[c]chromen-6-one]
other
  melting point: 128.1 to 129.5 °C
[1]
  IC50: > 100 µM

## O=c1oc2cc(OCCC3OCCO3)ccc2c2c1CCCC2 [Compound 4h, 3-(2-(1,3-dioxolan-2-yl)ethoxy)-7,8,9,10-tetrahydro-6H-benzo[c]chromen-6-one]
other
  melting point: 111 to 112.3 °C
[1]
  IC50: > 100 µM

## O=c1oc2cc(OCC3CCCCC3)ccc2c2c1CCCC2 [Compound 4i, 3-(cyclohexylmethoxy)-7,8,9,10-tetrahydro-6H-benzo[c]chromen-6-one]
other
  melting point: 107.2 to 109.3 °C
[1]
  IC50: > 100 µM

## O=c1oc2cc(OCC3CCOCC3)ccc2c2c1CCCC2 [Compound 4j, 3-((tetrahydro-2H-pyran-4-yl)methoxy)-7,8,9,10-tetrahydro-6H-benzo[c]chromen-6-one]
other
  melting point: 124.6 to 125.2 °C
[1]
  IC50: > 100 µM

## O=c1oc2cc(OCCC3OCCCO3)ccc2c2c1CCCC2 [Compound 4k, 3-(2-(1,3-dioxan-2-yl)ethoxy)-7,8,9,10-tetrahydro-6H-benzo[c]chromen-6-one]
other
  melting point: 107.5 to 108.4 °C
[1]
  IC50: > 100 µM

## O=c1oc2cc(OCc3ccccc3F)ccc2c2c1CCCC2 [Compound 4l, 3-((2-fluorobenzyl)oxy)-7,8,9,10-tetrahydro-6H-benzo[c]chromen-6-one]
other
  melting point: 124.2 to 125.6 °C
[1]
  IC50: > 100 µM

## COc1cc(COc2ccc3c4c(c(=O)oc3c2)CCCC4)cc(OC)c1 [Compound 4m, 3-((3,5-dimethoxybenzyl)oxy)-7,8,9,10-tetrahydro-6H-benzo[c]chromen-6-one]
other
  melting point: 98.5 to 99.2 °C
[1]
  IC50: > 100 µM
